# Data: patent US20260325533A1, “CDK INHIBITOR COMPOUNDS” (ALEKSIA THERAPEUTICS, INC., priority 2023, published 2026)
# pIC50: −log10 of the molar value. Like-named read-outs stand apart in the source and are kept apart here.
# Key:
# Format in all cases: biochemical
# CDK2/CCNE1 = CDK2/CCNE1 (Homo sapiens, UniProt P24941); experiment: CDK2 homogeneous time-resolved fluorescence (HTRF) kinase assay; conditions: CDK2/CCNE
# How it was run: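 3 nM CDK2/CCNE1 was preincubated with compound for 20 min at 23 °C in HEPES buffer (pH not stated), then reacted 60 min with 1 mM ATP and 50 nM ULight-4E-BP1 (Thr37/46) peptide. After EDTA stop, Eu-anti-phospho-4E-BP1 antibody (2 nM) was added for 60 min and TR-FRET read at 665 nm.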
# CDK1/CCNB1 = CDK1/CCNB1 (Homo sapiens, UniProt P06493); experiment: CDK1 homogeneous time-resolved fluorescence (HTRF) kinase assay; conditions: CDK1/CCNB
# How it was run: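 HTRF assay with 0.5 nM CDK1/CCNB1, 1 mM ATP, 50 nM ULight-eIF4E-BP1 (Thr37/46) peptide; compound preincubated 20 min, reaction 60 min at 23 °C, EDTA stop, Eu-anti-phospho antibody detection. 11-point half-log titration from 10 μM, 1% DMSO; IC50 from 665 nm or 665/615 signal.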
# CDK4/CCND3 = CDK4/CCND3 (Homo sapiens, UniProt P11802); experiment: CDK4 homogeneous time-resolved fluorescence (HTRF) kinase assay; conditions: CDK4/CCND
# How it was run: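 Steps: compound plus 1.5 nM CDK4/CCND3, 20 min, 23 °C; add 1 mM ATP and 50 nM ULight-4E-BP1 (Thr37/46) peptide, 60 min; stop with 10 mM EDTA; add 2 nM Eu anti-phospho antibody, 60 min; read 665 nm. IC50 from 11-point half-log series starting 10 μM.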
# CDK6/CCND1 = CDK6/CCND1 (Homo sapiens, UniProt Q00534); experiment: CDK6 homogeneous time-resolved fluorescence (HTRF) kinase assay; conditions: CDK6/CCND
# How it was run: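 Enzyme pre-incubated 20 min at 23 °C with compound, then reacted 60 min at 23 °C with 1 mM ATP and 50 nM ULight-4E-BP1 (Thr37/46) peptide; 1 nM enzyme, 1% DMSO. EDTA-stopped, Eu-anti-phospho antibody TR-FRET read (665 nm or 665/615 ratio); 11-point half-log titration from 10 μM gave IC50.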
# [1] = 25-250 nM marked x, read-out: CDK2/CCNE IC50 25-250 nM
# [2] = >250 nM marked x, read-out: CDK1/CCNB IC50 >250 nM
# [3] = 25-250 nM marked x, read-out: CDK4/CCND IC50 25-250 nM
# [4] = >250 nM marked x, read-out: CDK6/CCND IC50 >250 nM
# [5] = x = IC50 <25 nM, read-out: CDK2/CCNE IC50 (<25 nM)
# [6] = x = IC50 25-250 nM, read-out: CDK1/CCNB IC50 (25-250 nM)
# [7] = x = IC50 >250 nM, read-out: CDK4/CCND IC50 (>250 nM column)
# [8] = x = IC50 >250 nM, read-out: CDK6/CCND IC50 (>250 nM column)
# [9] = <25 nM, read-out: CDK2/CCNE IC50, <25 nM
# [10] = >250 nM, read-out: CDK1/CCNB IC50 >250 nM
# [11] = >250 nM, read-out: CDK4/CCND IC50, >250 nM
# [12] = >250 nM, 1 mM ATP, read-out: CDK6/CCND IC50, >250 nM
# [13] = x = IC50 <25 nM, read-out: CDK4/CCND IC50 (<25 nM)
# [14] = x = IC50 25-250 nM, read-out: CDK6/CCND IC50 (25-250 nM)
# [15] = >250 nM marked x, read-out: CDK4/CCND IC50 >250 nM
# [16] = x = IC50 >250 nM, read-out: CDK1/CCNB IC50 (>250 nM column)
# [17] = x = IC50 25-250 nM, read-out: CDK4/CCND IC50 (25-250 nM)
# [18] = 25-250 nM, read-out: CDK2/CCNE IC50, 25-250 nM
# CDK1/CCNB1, sequence (P06493 whole entry): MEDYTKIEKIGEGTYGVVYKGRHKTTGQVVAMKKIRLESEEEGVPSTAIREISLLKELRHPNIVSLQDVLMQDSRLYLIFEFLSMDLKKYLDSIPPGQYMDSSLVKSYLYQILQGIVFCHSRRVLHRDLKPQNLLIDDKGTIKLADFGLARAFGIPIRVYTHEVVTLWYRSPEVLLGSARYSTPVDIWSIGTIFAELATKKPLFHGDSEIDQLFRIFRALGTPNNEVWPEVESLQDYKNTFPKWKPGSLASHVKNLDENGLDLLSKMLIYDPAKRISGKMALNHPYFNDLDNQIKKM
# CDK1/CCNB1, sequence (P14635 whole entry partner): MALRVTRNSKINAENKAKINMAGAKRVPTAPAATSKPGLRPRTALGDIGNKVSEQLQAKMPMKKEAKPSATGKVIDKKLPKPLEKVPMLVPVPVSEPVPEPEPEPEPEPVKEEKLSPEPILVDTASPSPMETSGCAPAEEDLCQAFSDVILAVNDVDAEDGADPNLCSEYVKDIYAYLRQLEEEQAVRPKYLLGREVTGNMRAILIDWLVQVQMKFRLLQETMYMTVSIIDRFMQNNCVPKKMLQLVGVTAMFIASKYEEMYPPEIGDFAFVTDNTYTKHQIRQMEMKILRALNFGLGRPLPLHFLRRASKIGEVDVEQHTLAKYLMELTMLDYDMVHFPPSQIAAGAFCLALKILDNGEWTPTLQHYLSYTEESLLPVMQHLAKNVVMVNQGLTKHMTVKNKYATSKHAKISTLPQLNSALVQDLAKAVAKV
# CDK4/CCND3, sequence (P11802 whole entry): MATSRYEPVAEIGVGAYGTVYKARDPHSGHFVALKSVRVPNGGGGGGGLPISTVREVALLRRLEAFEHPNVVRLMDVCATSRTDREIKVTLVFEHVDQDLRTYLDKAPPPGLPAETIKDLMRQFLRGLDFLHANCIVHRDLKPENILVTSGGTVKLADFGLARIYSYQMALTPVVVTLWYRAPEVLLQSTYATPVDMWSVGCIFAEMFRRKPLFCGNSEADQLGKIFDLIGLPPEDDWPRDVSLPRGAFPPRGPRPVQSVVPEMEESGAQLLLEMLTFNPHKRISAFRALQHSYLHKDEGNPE
# CDK4/CCND3, sequence (P30281 whole entry partner): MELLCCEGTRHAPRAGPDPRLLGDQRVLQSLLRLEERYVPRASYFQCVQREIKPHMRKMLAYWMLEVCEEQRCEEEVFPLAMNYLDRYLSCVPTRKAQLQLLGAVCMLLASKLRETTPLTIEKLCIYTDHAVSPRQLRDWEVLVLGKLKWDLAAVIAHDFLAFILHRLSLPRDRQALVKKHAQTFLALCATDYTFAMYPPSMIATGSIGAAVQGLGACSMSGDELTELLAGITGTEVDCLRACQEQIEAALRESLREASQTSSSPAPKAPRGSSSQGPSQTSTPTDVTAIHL
# CDK6/CCND1, sequence (Q00534 whole entry): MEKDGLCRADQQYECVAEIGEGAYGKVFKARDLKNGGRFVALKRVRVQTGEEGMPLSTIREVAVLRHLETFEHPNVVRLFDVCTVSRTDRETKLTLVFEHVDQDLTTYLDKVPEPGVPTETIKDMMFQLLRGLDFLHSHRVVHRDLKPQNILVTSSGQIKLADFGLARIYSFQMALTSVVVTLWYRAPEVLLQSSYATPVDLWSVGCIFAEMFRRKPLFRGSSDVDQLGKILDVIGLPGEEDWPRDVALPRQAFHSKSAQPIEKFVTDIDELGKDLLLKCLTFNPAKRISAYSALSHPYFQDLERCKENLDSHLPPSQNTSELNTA
# CDK6/CCND1, sequence (P24385 whole entry partner): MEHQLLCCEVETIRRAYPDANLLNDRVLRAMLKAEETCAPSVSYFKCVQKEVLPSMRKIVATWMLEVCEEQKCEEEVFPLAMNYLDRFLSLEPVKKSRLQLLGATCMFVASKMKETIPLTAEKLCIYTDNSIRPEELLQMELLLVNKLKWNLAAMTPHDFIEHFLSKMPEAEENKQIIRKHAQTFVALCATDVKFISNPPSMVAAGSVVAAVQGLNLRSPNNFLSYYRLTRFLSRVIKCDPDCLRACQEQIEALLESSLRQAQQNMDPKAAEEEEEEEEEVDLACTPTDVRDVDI
compound,measurement,setting,value
"CS(=O)(=O)c1ccc(Nc2cc3c(-c4ccc5[nH]ncc5c4F)nccc3cn2)cc1 [Ex 184, 5-(4-fluoro-1H-indazol-5-yl)-N-(4-(methylsulfonyl)phenyl)-2,6-naphthyridin-3-amine]",pIC50,CDK2/CCNE1; [1],6.60 to 7.60
same,pIC50,CDK1/CCNB1; [2],< 6.60
same,pIC50,CDK4/CCND3; [3],6.60 to 7.60
same,pIC50,CDK6/CCND1; [4],< 6.60
"CC1(C)C(=O)Nc2cc(C#Cc3nccc4cnc(Nc5ccc(S(C)(=O)=O)cn5)cc34)ccc21 [Ex 439, 3,3-dimethyl-6-((7-((5-(methylsulfonyl)pyridin-2-yl)amino)-2,6-naphthyridin-1-yl)ethynyl)indolin-2-one]",pIC50,CDK2/CCNE1; [5],> 7.60
same,pIC50,CDK1/CCNB1; [6],6.60 to 7.60
same,pIC50,CDK4/CCND3; [7],< 6.60
same,pIC50,CDK6/CCND1; [8],< 6.60
"Cc1c(-c2nccc3cnc(Nc4ccc(S(=O)(=O)Nc5nc(F)cc(F)n5)cc4)cc23)ccc2c1cnn2CC(C)(C)O [Ex 868, N-(4,6-difluoropyrimidin-2-yl)-4-((5-(1-(2-hydroxy-2-methylpropyl)-4-methyl-1H-indazol-5-yl)-2,6-naphthyridin-3-yl)amino)benzenesulfonamide]",pIC50,CDK2/CCNE1; [9],> 7.60
same,pIC50,CDK1/CCNB1; [10],< 6.60
same,pIC50,CDK4/CCND3; [11],< 6.60
same,pIC50,CDK6/CCND1; [12],< 6.60
"Cc1cc(S(=N)(=O)C2COC2)ccc1Nc1cc2c(C#Cc3ccc4c(c3)NC(=O)C43CC3)nccc2cn1 (single isomer, unassigned) [Ex 268, 6'-((7-((2-methyl-4-(oxetane-3-sulfonimidoyl)phenyl)amino)-2,6-naphthyridin-1-yl)ethynyl)spiro[cyclopropane-1,3'-indolin]-2'-one]",pIC50,"CDK2/CCNE1; <25 nM, read-out: CDK2/CCNE IC50 <25 nM",> 7.60
same,pIC50,"CDK1/CCNB1; 25-250 nM marked x, read-out: CDK1/CCNB IC50 25-250 nM",6.60 to 7.60
same,pIC50,CDK4/CCND3; [3],6.60 to 7.60
same,pIC50,CDK6/CCND1; [4],< 6.60
"CC1(C)C(=O)Nc2cc(C#Cc3nccc4cnc(Nc5ccc(S(=O)(=O)NC6CCNCC6)cc5)cc34)ccc21 [Ex 442, 4-((5-((3,3-dimethyl-2-oxoindolin-6-yl)ethynyl)-2,6-naphthyridin-3-yl)amino)-N-(piperidin-4-yl)benzenesulfonamide]",pIC50,CDK2/CCNE1; [5],> 7.60
same,pIC50,"CDK1/CCNB1; x = IC50 <25 nM, read-out: CDK1/CCNB IC50 (<25 nM)",> 7.60
same,pIC50,CDK4/CCND3; [13],> 7.60
same,pIC50,CDK6/CCND1; [14],6.60 to 7.60
"CC1(C)C(=O)Nc2cc(C#Cc3nccc4cnc(Nc5ccc(S(=N)(=O)C6CC6)cc5)cc34)ccc21 (single isomer, unassigned) [Ex 437, 6-((7-((4-(cyclopropanesulfonimidoyl)phenyl)amino)-2,6-naphthyridin-1-yl)ethynyl)-3,3-dimethylindolin-2-one]",pIC50,CDK2/CCNE1; [5],> 7.60
same,pIC50,CDK1/CCNB1; [6],6.60 to 7.60
same,pIC50,CDK4/CCND3; [13],> 7.60
same,pIC50,CDK6/CCND1; [14],6.60 to 7.60
"CCC1(CC)C(=O)Nc2cc(C#Cc3nccc4cnc(Nc5ccc(S(C)(=N)=O)cc5OC)cc34)ccc21 (single isomer, unassigned) [Ex 319, 3,3-diethyl-6-((7-((2-methoxy-4-(S-methylsulfonimidoyl)phenyl)amino)-2,6-naphthyridin-1-yl)ethynyl)indolin-2-one]",pIC50,CDK2/CCNE1; [1],6.60 to 7.60
same,pIC50,CDK1/CCNB1; [2],< 6.60
same,pIC50,CDK4/CCND3; [15],< 6.60
same,pIC50,CDK6/CCND1; [4],< 6.60
"CS(=O)(=O)c1ccc(Nc2cc3c(C4CCN(S(=O)(=O)c5cccnc5)C4)nccc3cn2)cc1 (racemic) [Ex 238, N-(4-(methylsulfonyl)phenyl)-5-(1-(pyridin-3-ylsulfonyl)pyrrolidin-3-yl)-2,6-naphthyridin-3-amine]",pIC50,"CDK2/CCNE1; >250 nM marked x, read-out: CDK2/CCNE IC50 >250 nM",< 6.60
same,pIC50,CDK1/CCNB1; [2],< 6.60
same,pIC50,CDK4/CCND3; [15],< 6.60
same,pIC50,CDK6/CCND1; [4],< 6.60
"CC(O)CN1CCc2cc(-c3nccc4cnc(Nc5ccc(S(C)(=O)=O)cc5)cc34)ccc2C1 (racemic) [Ex 628, 1-(6-(7-((4-(methylsulfonyl)phenyl)amino)-2,6-naphthyridin-1-yl)-3,4-dihydroisoquinolin-2(1H)-yl)propan-2-ol]",pIC50,CDK2/CCNE1; [5],> 7.60
same,pIC50,CDK1/CCNB1; [16],< 6.60
same,pIC50,CDK4/CCND3; [17],6.60 to 7.60
same,pIC50,CDK6/CCND1; [14],6.60 to 7.60
"CN(C)C1CCCN(c2nccc3cnc(NC4CCN(S(C)(=O)=O)CC4)cc23)CC1 (racemic) [Ex 52, 5-(4-(dimethylamino)azepan-1-yl)-N-(1-(methylsulfonyl)piperidin-4-yl)-2,6-naphthyridin-3-amine]",pIC50,CDK2/CCNE1; [1],6.60 to 7.60
same,pIC50,CDK1/CCNB1; [2],< 6.60
same,pIC50,"CDK4/CCND3; <25 nM, read-out: CDK4/CCND IC50 <25 nM",> 7.60
same,pIC50,"CDK6/CCND1; <25 nM, read-out: CDK6/CCND IC50 <25 nM",> 7.60
"Cc1ccc(NS(=O)(=O)c2ccc(Nc3cc4c(-c5ccc6c(cnn6CC(O)(C(F)(F)F)C(F)(F)F)c5C)nccc4cn3)cc2)nc1N1CCOCC1 [Ex 694, 4-((5-(4-methyl-1-(3,3,3-trifluoro-2-hydroxy-2-(trifluoromethyl)propyl)-1H-indazol-5-yl)-2,6-naphthyridin-3-yl)amino)-N-(5-methyl-6-morpholinopyridin-2-yl)benzenesulfonamide]",pIC50,CDK2/CCNE1; [18],6.60 to 7.60
same,pIC50,CDK1/CCNB1; [10],< 6.60
same,pIC50,CDK4/CCND3; [11],< 6.60
same,pIC50,CDK6/CCND1; [12],< 6.60
"CNc1ccncc1C#Cc1nccc2cnc(Nc3ccc(S(C)(=O)=O)cc3)cc12 [Ex 547, 5-((4-(methylamino)pyridin-3-yl)ethynyl)-N-(4-(methylsulfonyl)phenyl)-2,6-naphthyridin-3-amine]",pIC50,"CDK2/CCNE1; x = IC50 >250 nM, read-out: CDK2/CCNE IC50 (>250 nM column)",< 6.60
same,pIC50,CDK1/CCNB1; [16],< 6.60
same,pIC50,CDK4/CCND3; [7],< 6.60
same,pIC50,CDK6/CCND1; [8],< 6.60
"Cc1c(-c2nccc3cnc(Nc4ccc(S(=O)(=O)N5CCCCC5)cc4)cc23)ccc2c1cnn2CC(C)(C)O [Ex 923, 2-methyl-1-(4-methyl-5-(7-((4-(piperidin-1-ylsulfonyl)phenyl)amino)-2,6-naphthyridin-1-yl)-1H-indazol-1-yl)propan-2-ol]",pIC50,CDK2/CCNE1; [18],6.60 to 7.60
same,pIC50,CDK1/CCNB1; [10],< 6.60
same,pIC50,CDK4/CCND3; [11],< 6.60
same,pIC50,CDK6/CCND1; [12],< 6.60
"CS(=O)(=O)c1ccc(Nc2cc3c(C#Cc4cnc(N)cn4)nccc3cn2)cc1 [Ex 622, 5-((5-aminopyrazin-2-yl)ethynyl)-N-(4-(methylsulfonyl)phenyl)-2,6-naphthyridin-3-amine]",pIC50,"CDK2/CCNE1; x = IC50 25-250 nM, read-out: CDK2/CCNE IC50 (25-250 nM)",6.60 to 7.60
same,pIC50,CDK1/CCNB1; [16],< 6.60
same,pIC50,CDK4/CCND3; [7],< 6.60
same,pIC50,CDK6/CCND1; [8],< 6.60
"CC1(O)C(=O)Nc2cc(C#Cc3nccc4cnc(Nc5ccc(S(C)(=O)=O)cc5)cc34)ccc21 (single isomer, unassigned) [Example 347, 3-hydroxy-3-methyl-6-((7-((4-(methylsulfonyl)phenyl)amino)-2,6-naphthyridin-1-yl)ethynyl)indolin-2-one]",pIC50,CDK2/CCNE1; [5],> 7.60
same,pIC50,CDK1/CCNB1; [6],6.60 to 7.60
same,pIC50,CDK4/CCND3; [17],6.60 to 7.60
same,pIC50,CDK6/CCND1; [14],6.60 to 7.60
"Cc1cc(C)nc(NS(=O)(=O)c2ccc(Nc3cc4c(-c5ccc6c(cnn6CC(C)(C)O)c5C)nccc4cn3)cc2)n1 [Ex 926, N-(4,6-dimethylpyrimidin-2-yl)-4-((5-(1-(2-hydroxy-2-methylpropyl)-4-methyl-1H-indazol-5-yl)-2,6-naphthyridin-3-yl)amino)benzenesulfonamide]",pIC50,CDK2/CCNE1; [9],> 7.60
same,pIC50,"CDK1/CCNB1; 25-250 nM, read-out: CDK1/CCNB IC50, 25-250 nM",6.60 to 7.60
same,pIC50,CDK4/CCND3; [11],< 6.60
same,pIC50,"CDK6/CCND1; 25-250 nM, 1 mM ATP, read-out: CDK6/CCND IC50, 25-250 nM",6.60 to 7.60
